Laboratory results reported in patent US20110173718A1, “HERBICIDE TOLERANT PLANTS” (SYNGENTA CROP PROTECTION, INC., priority 2008, published 2011).
Values joined by “and” are separate entries in the source; they are usually repeats but may differ in a detail not shown here. Identical values can stand only once.

Columns and labels:
Assay type in all cases: in vivo
[1] = test system: Tobacco (var Samsun) plantlets in agar; assay: HST + HPPD herbicide effects on tobacco seedlings in agar; conditions: for % Injury, plus Mesotrione (0.004 ppm) (EXPECTED): Colby expected; for % Injury (O − E): observed minus expected
Procedure: Tobacco (var Samsun) plantlets germinated aseptically in agar made up in 1/3 strength Murashige and Skoog salts medium along with various doses of herbicide. Bleaching damage to emerging plantlets is assessed 7 DAT. The plantlets are kept covered under clear perspex and grown at 18° C. (night) and 24° C. (day) under a 16 h day (˜500-900 umol/m^2), 8 h darkness regime. Herbicide affected plantlets are bleached white and grow less. Synergistic/antagonistic responses are calculated using the Colby formula (Colby, S. R. (Calculating synergistic and antagonistic responses of herbicide Combinations”, Weeds, 15, p. 20-22, 1967).

[2] = test system: Arabidopsis HST transgenic tobacco plants; assay: Glasshouse spray test, Arabidopsis HST transgenic tobacco; conditions: D2 line (Arabidopsis HST, segregating T1), individual plants
tobacco leaf explants = assay: Tobacco leaf explants plated on NBM medium with haloxydine; conditions: 1 mg/1 haloxydine
Procedure: To roughly evaluate comparative levels of ectopic HST expression independent PCR positive tobacco shoots have young leaves removed, cut into 1 cm squares and plated onto NBM medium incorporating 1 mg/1 haloxydine. These leaf explants produce callus and ultimately regenerated shoots.

[3] = test system: Chlamydomonas HST T0 tobacco lines; assay: Glasshouse spray test, Chlamydomonas HST transgenic tobacco; design: herbicidal damage score: scale not given here; conditions: for blch (% bleaching at the meristem relative to control plants) / ht (% height reduction relative to control plants): 100 g, individual T0 lines
Source text: In just the same way the Chlamydomonas HST gene sequence (AM285678) is codon-optimised for tobacco and cloned behind the double Cauliflower mosaic virus 35S promoter and Tobacco mosaic virus enhancer sequences and in front of a nos gene terminator, cloned into a binary vector and transformed into tobacco to produce a population of T0 plants.

[4] = test system: tobacco plants expressing Wheat HPPD; assay: Glasshouse spray test, wheat HPPD transgenic tobacco; conditions: for blch (% bleaching at the meristem relative to control plants) / ht (% height reduction relative to control plants): 100 g, individual T0 lines; for % damage observed 16 DAT: Wheat HPPD T1
Source text: Transgenic lines of tobacco, soyabean and corn etc. can be engineered to express various heterologous HPPDs derived from, for example Avena (SEQ ID #26), Wheat (SEQ ID #27), Pseudomonas fluorescens (SEQ ID # 25) and Shewanella colwelliana (SEQ ID #28) as, for example, described in WO 02/46387.
Single copy events amongst the T1 plant lines are identified by their 3:1 segregation ratio (wrt kanamycin and or herbicide) and by quantitative RT-PCR. Seed from the thus selected T1 tobacco (var Samsun) lines are sown in 3 inch diameter pots containing 50% peat, 50% John Innes soil no 3. After growth to the 3 leaf stage, plants are sprayed, as described above, in order to test for herbicide tolerance relative to like-treated non-transgenic tobacco plants. […]
Exactly as described in example 5 of WO 02/46387 the wheat HPPD gene sequence (Embl DD064495) is cloned behind an Arabidopsis Rubisco small subunit (SSU) promoter and in front of a nos gene terminator to produce an SSU Wheat HPPD nos expression cassette' which is cloned into a binary vector and transformed into tobacco to produce a population of 30-50 transgenic events.

[5] = haloxydine 0.3 ppm + mesotrione 0.004 ppm, agar, 7 DAT
[6] = haloxydine 0.6 ppm + mesotrione 0.004 ppm, agar, 7 DAT
[7] = haloxydine 1.2 ppm + mesotrione 0.004 ppm, agar, 7 DAT
[8] = haloxydine 2.4 ppm + mesotrione 0.004 ppm, agar, 7 DAT
[9] = haloxydine 4.7 ppm + mesotrione 0.004 ppm, agar, 7 DAT
[10] = haloxydine 9.4 ppm + mesotrione 0.004 ppm, agar, 7 DAT
[11] = haloxydine 18.8 ppm + mesotrione 0.004 ppm, agar, 7 DAT
[12] = haloxydine 37.5 ppm + mesotrione 0.004 ppm, agar, 7 DAT

Oc1c(Cl)c(F)nc(F)c1Cl [Compound 1.1, haloxydine]
% Injury, plus Mesotrione (0.004 ppm) (EXPECTED) [1, 5]: 41.5%
% Injury, plus Mesotrione (0.004 ppm) (EXPECTED) [1, 6]: 48%
% Injury, plus Mesotrione (0.004 ppm) (EXPECTED) [1, 7]: 58%
% Injury, plus Mesotrione (0.004 ppm) (EXPECTED) [1, 8]: 67.5%
% Injury, plus Mesotrione (0.004 ppm) (EXPECTED) [1, 9]: 80%
% Injury, plus Mesotrione (0.004 ppm) (EXPECTED) [1, 10]: 94%
% Injury, plus Mesotrione (0.004 ppm) (EXPECTED) [1, 11]: 100%
% Injury, plus Mesotrione (0.004 ppm) (EXPECTED) [1, 12]: 100%
effect of adding a low dose of mesotrione on the herbicidal effect ([1]; agar grown tobacco plantlets): synergises
% Injury, plus Mesotrione (0.004 ppm) (OBSERVED) [1, 5]: 50%
% Injury (bleaching), haloxydine only ([1]; haloxydine 0.3 ppm, agar, 7 DAT): 10%
% Injury, plus Mesotrione (0.004 ppm) (OBSERVED) [1, 6]: 50%
% Injury (bleaching), haloxydine only ([1]; haloxydine 0.6 ppm, agar, 7 DAT): 20%
% Injury, plus Mesotrione (0.004 ppm) (OBSERVED) [1, 7]: 70%
% Injury (bleaching), haloxydine only ([1]; haloxydine 1.2 ppm, agar, 7 DAT): 35%
% Injury, plus Mesotrione (0.004 ppm) (OBSERVED) [1, 8]: 90%
% Injury (bleaching), haloxydine only ([1]; haloxydine 2.4 ppm, agar, 7 DAT): 50%
% Injury, plus Mesotrione (0.004 ppm) (OBSERVED) [1, 9]: 100%
% Injury (bleaching), haloxydine only ([1]; haloxydine 4.7 ppm, agar, 7 DAT): 70%
% Injury, plus Mesotrione (0.004 ppm) (OBSERVED) [1, 10]: 100%
% Injury (bleaching), haloxydine only ([1]; haloxydine 9.4 ppm, agar, 7 DAT): 90%
% Injury, plus Mesotrione (0.004 ppm) (OBSERVED) [1, 11]: 100%
% Injury (bleaching), haloxydine only ([1]; haloxydine 18.8 ppm, agar, 7 DAT): 100%
% Injury, plus Mesotrione (0.004 ppm) (OBSERVED) [1, 12]: 100%
% Injury (bleaching), haloxydine only ([1]; haloxydine 37.5 ppm, agar, 7 DAT): 100%
% Injury (O − E) [1, 5]: 8.5%
% Injury (O − E) [1, 6]: 2%
% Injury (O − E) [1, 7]: 12%
% Injury (O − E) [1, 8]: 22.5%
% Injury (O − E) [1, 9]: 20%
% Injury (O − E) [1, 10]: 6%
% Injury (O − E) [1, 11]: 0%
% Injury (O − E) [1, 12]: 0%
% damage at 7 DAT ([2]; 25 gai/ha): 55% (2×) and 35% and 65% (3×) and 100% and 30%
callus and shoot regeneration (tobacco leaf explants; explants over expressing HST): green callus and shoots
callus and shoot regeneration (tobacco leaf explants; untransformed explants or transformants with limited HST expression): bleached callus and stunted bleached shoots that ultimately died

CC(C)C(=O)Oc1c(-c2c(F)ccc(Br)c2Cl)c(=O)n(CC(F)F)c2nccnc12 [Compound 2.30]
blch (% bleaching at the meristem relative to control plants) ([3]; 17 DAT): 0% (14×) and 15% (3×) and 20% and 65% and 10% (2×) and 90% and 75%
ht (% height reduction relative to control plants) ([3]; 17 DAT): 15% (2×) and 10% (2×) and 55% (3×) and 25% and 30% (2×) and 0% (2×) and 5% and 8% and 20% (3×) and 40% (2×) and 50% and 35% and 90% and 85%
blch (% bleaching at the meristem relative to control plants) ([3]; 26 DAT): 0% (19×) and 25% and 85% (2×) and 90% (2×)
ht (% height reduction relative to control plants) ([3]; 26 DAT): 30% (5×) and 20% (6×) and 70% and 10% and 80% and 35% (2×) and 90% (2×) and 50% and 25% and 75% (2×) and 95% and 60%
blch (% bleaching at the meristem relative to control plants) ([4]; 7 DAT): 35% (5×) and 40% (5×) and 50% (2×) and 60% (2×) and 30% (6×) and 70% (2×) and 10% (2×)
ht (% height reduction relative to control plants) ([4]; 7 DAT): 50% (5×) and 60% (3×) and 90% (3×) and 70% (7×) and 40% (2×) and 30% (2×) and 20% (2×)
blch (% bleaching at the meristem relative to control plants) ([4]; 21 DAT): 0% (15×) and 90% (2×) and 70% (5×) and 50% (2×) and 65% and 45%
ht (% height reduction relative to control plants) ([4]; 21 DAT): 45% (2×) and 85% (3×) and 80% (2×) and 30% and 55% (3×) and 50% (5×) and 40% (3×) and 60% (2×) and 75% and 70% (2×) and 95% and 90%
% damage at 7 DAT ([2]; 150 gai/ha): 65% and 40% (2×) and 50% and 55% and 60% (2×) and 90%
% damage at 7 DAT ([2]; 300 gai/ha): 60% (2×) and 80% and 95% and 98% and 70% and 90% (2×)
% damage at 7 DAT ([2]; 450 gai/ha): 35% (2×) and 20% and 55% (2×) and 60% and 65% and 70%

O=c1c(-c2c(F)ccc(F)c2Cl)c(O)c2nccnc2n1CC(F)F [Compound 2.3]
% damage observed 16 DAT ([4]; 37 g/ha): 0%
% damage observed 16 DAT ([4]; 111 g/ha): 0%
% damage observed 16 DAT ([4]; 333 g/ha): 3%
% damage observed 16 DAT ([4]; 1000 g/ha): 8%

CS(=O)(=O)c1ccc(C(=O)C2C(=O)CCCC2=O)c([N+](=O)[O-])c1 [Mesotrione, mesotrione, reference compound]
herbicidal damage score ([3]; Chlamydomonas HST T0 tobacco events (one value per event), 15 g/ha of mesotrione, 21 DAT): 70 and 55 and 85 and 65 and 80 and 75 and 60 and 100
% Injury (bleaching), mesotrione by itself ([1]; mesotrione 0.004 ppm, 0.75% v/v DMSO, no haloxydine, agar, 7 DAT): 35%
% damage observed 16 DAT ([4]; 37 g/ha): 0%
% damage observed 16 DAT ([4]; 111 g/ha): 2%
% damage observed 16 DAT ([4]; 333 g/ha): 0%
% damage observed 16 DAT ([4]; 1000 g/ha): 13%
